These results are taken from patent US5120870A, “Emulsion of lipid containing a prostaglandin analogue” (priority 1989, dated 1992).

The nature of series [1]: Stability of the PG analogue during the preparation of the emulsion (HPLC). It is filed as physicochemical. The note with it: lipid emulsion prepared at 90° C., final concentration 5 μg/ml. As for the experimental part:
To 500 μg of the PG analogue of the formula (2) of the present invention produced as described above, 10 g of purified soybean oil and 1.2 g of purified yolk lecitin were added, and the mixture was melted under heating at 90° C. by means of a homogenizer at 90° C. Then, 2.5 g of glycerol and 90 ml of distilled water for injection were added thereto, followed by rough emulsification by means of a homogenizer at […]. The product is then emulsified by means of a manton gaulin type homogenizer to obtain an emulsion having a final concentration of 5 μg/ml.
The stability of the PG analogue of the present invention during the preparation of the emulsion and the storage stability of the emulsion were measured, and the results are shown in Table 3.
The stability during the preparation and the remaining rate in the storage stability was measured by a separation quantitative analysis by means of high performance liquid chromatography, and the ratio of the measured amount relative to the amount at the initiation of the test was taken as the remaining rate.

Series [2] in a line: Storage stability of the emulsion (HPLC). The note with it: for Storage stability: Decomposition reaction rate constant: 40° C., calculated from change with time of remaining rate; for Storage stability: Remaining rate: emulsion stored 4 weeks at 40° C., 40320 min. It is filed as physicochemical. As for the experimental part:
| Storage stability: | Stored for 4 weeks under a temperature condition of 40° C., and th | remaining rate (%) after the 4 weeks was measured. Further, from the | change with time of the remaining rate, the decomposition reaction rate | constant was calculated. The stability during the preparation and the remaining rate in the storage stability was measured by a separation quantitative analysis by means of high performance liquid chromatography, and the ratio of the measured amount relative to the amount at the initiation of the test was taken as the remaining rate.

In a further series the test system is platelet aggregation. Nature of the series: Platelet aggregation inhibiting effect, ADP-induced, platelet rich plasma. Particulars: 20 μM ADP, relative to physiological saline. The class given is cell-based. As for the experimental part: Further, the platelet aggregation inhibiting effects were measured as follows, and the results are shown also in Table 3.
Using sodium citrate (3.8%), peripheral blood was collected (blood 9, sodium citrate 1). This peripheral blood was subjected to centrifugal separation at 1000 rpm for 10 minutes to obtain a platelet rich plasma, and the rest was subjected to centrifugal separation at 3000 rpm for 20 minutes to obtain a plate poor plasma. To 225 μl of the platelet rich plasma, 50 μl of a test sample was added. One minute later, platelet aggregation was induced with 20 μMADP solution 25, whereupon the aggregation inhibitory rate (%) was calculated based on the aggregation rate when a physiological saline solution was added instead of the test sample, being rated as 100%.

The test system of series [3] is human platelet aggregation. Particulars: Table 1(b), activity of PGE1 rated 100, cited from earlier work; for Inhibitory effects against human platelet aggregation (relative activity): (no incubation stated).
The conditions of series [4]: 1.6% BSA-saline solution, mean ± SE, n = 4-7, cited from earlier work.

Turning to `CCCCOC(=O)CCCCCCC1=C(OC(C)=O)C[C@@H](O)[C@@H]1/C=C/[C@@H](O)C[C@@H](C)CCCC` [Example 1, butyl 9-actoxy-11α,15S-dihyroxy-17S,20-dimethylprosta-8-13E-diene-1-oate], in series [1], the “Stability during the preparation” value amounted to 75.6%. Moreover, in series [2], the “Storage stability: Decomposition reaction rate constant” value is listed as 6.20 d^-1 × 10^3 and the “Storage stability: Remaining rate” value was 84.8%. Besides, the “Platelet aggregation inhibitory effects” value in the series with platelet aggregation stood at 37%.
On to `CCCCC[C@H](O)/C=C/[C@@H]1C(CCCCCCC(=O)OC)=C(OC(C)=O)C[C@H]1O` [Example 2, methyl 9-acetoxy-11α,15S-dihydroxyprosta-9,13E-diene-1-oate], for which the “Stability during the preparation” value in series [1] is listed as 70.4%. Also, in series [2], the “Storage stability: Decomposition reaction rate constant” value is reported as 11.8 d^-1 × 10^3 and the “Storage stability: Remaining rate” value was found to be 72.7%. Besides, the “Platelet aggregation inhibitory effects” value in the series on platelet aggregation is given as 100%.
In the same order, the values of `CCCCC[C@H](O)/C=C/[C@@H]1C(CCCCCCC(=O)OCCCC)=C(OC(C)=O)C[C@H]1O` [Example 3, butyl 9-acetoxy-11α,15S-dihydroxyprosta-8,13E-diene-1-oate] are 72.1%, 8.30 d^-1 × 10^3, 80.1% and 93%.
`CCCC[C@H](C)C[C@H](O)/C=C/[C@@H]1C(CCCCCCC(=O)OC)=C(OC(C)=O)C[C@H]1O` [Example 4, methyl 9-acetoxy-11α,15S-dihyroxy-17S,20-dimethylprosta-8,13E-diene-1-oate]: in series [1], the “Stability during the preparation” value amounted to 68.3%. In series [2], the “Storage stability: Decomposition reaction rate constant” value was 8.87 d^-1 × 10^3 and the “Storage stability: Remaining rate” value was determined as 77.9%. The “Platelet aggregation inhibitory effects” value in the series on platelet aggregation turned out to be 44%.
In the case of `CCCCC[C@H](O)/C=C/[C@H]1[C@H](O)CC(=O)[C@@H]1CCCCCCC(=O)OCCCC` [PGE1 butyl ester], in series [3], the “Inhibitory effects against human platelet aggregation (relative activity)” value is given as 29 and the “Inhibitory effects against human platelet aggregation (relative activity), after incubating in human serum for 20 min” value is given as 89. In series [4], the “% of PGE1 (or ester) liberated from LM, 1 min incubation” value (“% of PGE1 … 1 min incubation” for short) is 60.5 ± 4.0% and the “% of PGE1 (or ester) liberated from LM, 10 min incubation” value (“% of PGE1 … 10 min incubation” for short) is 65.3 ± 5.6%.
Turning to `CCCCC[C@H](O)/C=C/[C@H]1[C@H](O)CC(=O)[C@@H]1CCCCCCC(=O)OCC` [PGE1 ethyl ester], in series [3], the “Inhibitory effects against human platelet aggregation (relative activity)” value is recorded as 20 and the “Inhibitory effects against human platelet aggregation (relative activity), after incubating in human serum for 20 min” value was 28. In series [4], the “% of PGE1 … 1 min incubation” value is on record as 82.0 ± 8.8% and the “% of PGE1 … 10 min incubation” value is recorded as 125.4 ± 11.7%.
On to `CCCCC[C@H](O)/C=C/[C@H]1[C@H](O)CC(=O)[C@@H]1CCCCCCC(=O)OC` [PGE1 methyl ester], for which, in series [3], the “Inhibitory effects against human platelet aggregation (relative activity)” value is 23 and the “Inhibitory effects against human platelet aggregation (relative activity), after incubating in human serum for 20 min” value was 51. Also, in series [4], the “% of PGE1 … 1 min incubation” value was 82.5 ± 3.8% and the “% of PGE1 … 10 min incubation” value is 80.4 ± 2.9%.
Take `CCCCCCCCOC(=O)CCCCCC[C@H]1C(=O)C[C@@H](O)[C@@H]1/C=C/[C@@H](O)CCCCC` [PGE1 octyl ester]: in series [3], the “Inhibitory effects against human platelet aggregation (relative activity), after incubating in human serum for 20 min” value is listed as 4.
`CCCCC[C@H](O)/C=C/[C@H]1[C@H](O)CC(=O)[C@@H]1CCCCCCC(=O)O` [PGE1]: the “Stability during the preparation” value in series [1] came out at 43.9%. Besides, in series [2], the “Storage stability: Decomposition reaction rate constant” value is on record as 113 d^-1 × 10^3 and the “Storage stability: Remaining rate” value amounted to 4.6%. Besides, the “Platelet aggregation inhibitory effects” value in the series with platelet aggregation is 55%.
